In the experiment the target is T1, apelin receptor (APJ) (Homo sapiens, UniProt P35414).
T1 sequence (P35414 1-380): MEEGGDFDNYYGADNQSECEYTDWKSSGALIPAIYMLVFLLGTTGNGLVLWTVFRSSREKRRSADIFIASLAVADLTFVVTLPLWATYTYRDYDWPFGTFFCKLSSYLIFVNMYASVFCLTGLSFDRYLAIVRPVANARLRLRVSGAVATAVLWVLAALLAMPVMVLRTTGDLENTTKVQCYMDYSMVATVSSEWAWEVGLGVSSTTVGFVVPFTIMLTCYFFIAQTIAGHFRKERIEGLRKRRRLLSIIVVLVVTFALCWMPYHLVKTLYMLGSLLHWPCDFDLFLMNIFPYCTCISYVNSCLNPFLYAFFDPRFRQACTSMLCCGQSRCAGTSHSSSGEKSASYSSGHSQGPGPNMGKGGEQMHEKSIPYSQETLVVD
Briefly: In vitro apelin agonist activity (methods of Giddings et al., Apelin-13 as positive control). Format: cell-based. The following applies: in vitro apelin agonist activity, methods of Giddings et al., Apelin-13 as positive control; read-out: EC50 (nM) Ave. The source says: Characterization of the Apelin Agonist Activity of the Compounds
1:39-47, the contents of which are hereby incorporated by reference in its entirety. Using the methods described in Giddings et al. and Apelin-13 as a positive control.
As for `CCc1ccccc1-c1cc(C(=O)N[C@@H](CCN2CCCC(F)(F)C2)CC(=O)NC2CCC2)nn1C1CCCC1` [compound 412, (3S)-N-cyclobutyl-3-{[1-cyclopentyl-5-(2-ethylphenyl)-1H-pyrazol-3-yl]formamido}-5-(3,3-difluoropiperidin-1-yl)pentanamide], the EC50 was 5 nM.
In the case of `O=C(C[C@H](CCN1CCCCC1)NC(=O)c1cc(-c2ccccc2C2CC2)n(C2CCCC2)n1)NC1CCC1` [compound 413, (3S)-N-cyclobutyl-3-{[1-cyclopentyl-5-(2-cyclopropylphenyl)-1H-pyrazol-3-yl]formamido}-5-(piperidin-1-yl)pentanamide] it was 49 nM; in that of `COc1cccc(OC)c1-c1cc(C(=O)N[C@@H](CCN2CCCCC2)Cc2nnc[nH]2)nn1C1CCCC1` [compound 414], 200 nM.
Turning to `COc1cccc(OC)c1-c1cc(C(=O)N[C@@H](/C=C/c2ccc(F)cc2)CC(=O)NC2CCC2)nn1C1CCCC1` [compound 415, (3R,4E)-N-cyclobutyl-3-{[1-cyclopentyl-5-(2,6-dimethoxyphenyl)-1H-pyrazol-3-yl]formamido}-5-(4-fluorophenyl)pent-4-enamide], the EC50 worked out at 292 nM.
`COc1cccc(OC)c1-c1cc(C(=O)N[C@@H](CCc2ccc(F)cc2)CC(=O)NC2CCC2)nn1C1CCCC1` [compound 416, (3S)-N-cyclobutyl-3-{[1-cyclopentyl-5-(2,6-dimethoxyphenyl)-1H-pyrazol-3-yl]formamido}-5-(4-fluorophenyl)pentanamide]: the EC50 was determined as 606 nM.
In the case of `COc1cccc(OC)c1-c1cc(C(=O)N[C@@H](CCc2ccc(F)cc2)CC(=O)Nc2nccs2)nn1C1CCCC1` [compound 417, (3S)-3-{[1-cyclopentyl-5-(2,6-dimethoxyphenyl)-1H-pyrazol-3-yl]formamido}-5-(4-fluorophenyl)-N-(1,3-thiazol-2-yl)pentanamide] it was 36 nM.
As to `COc1cccc(OC)c1-c1cc(C(=O)N[C@@H](/C=C/c2cccnc2)CC(=O)NC2CCC2)nn1C1CCCC1` [compound 418, (3R,4E)-N-cyclobutyl-3-{[1-cyclopentyl-5-(2,6-dimethoxyphenyl)-1H-pyrazol-3-yl]formamido}-5-(pyridin-3-yl)pent-4-enamide], the EC50 was found to be 664 nM.
In the case of `COc1cccc(OC)c1-c1cc(C(=O)N[C@@H](/C=C/c2ccncc2)CC(=O)NC2CCC2)nn1C1CCCC1` [compound 419, (3R,4E)-N-cyclobutyl-3-{[1-cyclopentyl-5-(2,6-dimethoxyphenyl)-1H-pyrazol-3-yl]formamido}-5-(pyridin-4-yl)pent-4-enamide], the EC50 was over 10000 nM.
Consider `COc1cccc(OC)c1-c1cc(C(=O)N[C@@H](CCc2cccnc2)CC(=O)NC2CCC2)nn1C1CCCC1` [compound 420, (3S)-N-cyclobutyl-3-{[1-cyclopentyl-5-(2,6-dimethoxyphenyl)-1H-pyrazol-3-yl]formamido}-5-(pyridin-3-yl)pentanamide], for which the 50% effective concentration (EC50) amounted to 883 nM.
With `COc1cccc(OC)c1-c1cc(C(=O)N[C@@H](CCC2CCN(C)CC2)CC(=O)NC2CCC2)nn1C1CCCC1` [compound 421, (3S)-N-cyclobutyl-3-{[1-cyclopentyl-5-(2,6-dimethoxyphenyl)-1H-pyrazol-3-yl]formamido}-5-(1-methylpiperidin-4-yl)pentanamide] the figure was 3310 nM; with `O=C(O)C[C@H](CCN1CCC(F)(F)CC1)NC(=O)c1cc(-c2ccccc2C(F)(F)F)n(C2CCCC2)n1` [compound 424, (3S)-3-({1-cyclopentyl-5-[2-(trifluoromethyl)phenyl]-1H-pyrazol-3-yl}formamido)-5-(4,4-difluoropiperidin-1-yl)pentanoic acid], 110 nM.
For `O=C(C[C@H](CCN1CCCC(F)(F)C1)NC(=O)c1cc(-c2ccccc2C(F)(F)F)n(C2CCCC2)n1)NC1CCC1` [compound 425, (3S)-N-cyclobutyl-3-({1-cyclopentyl-5-[2-(trifluoromethyl)phenyl]-1H-pyrazol-3-yl}formamido)-5-(3,3-difluoropiperidin-1-yl)pentanamide], the EC50 was determined as 10.9 nM.
`O=C(C[C@H](CCN1CCCC(F)(F)C1)NC(=O)c1cc(-c2ccccc2C(F)(F)F)n(C2CCCC2)n1)Nc1nccs1` [compound 426, (3S)-3-({1-cyclopentyl-5-[2-(trifluoromethyl)phenyl]-1H-pyrazol-3-yl}formamido)-5-(3,3-difluoropiperidin-1-yl)-N-(1,3-thiazol-2-yl)pentanamide]: the EC50 is 10.6 nM.
In the case of `O=C(C[C@H](CCN1CCCC(F)(F)C1)NC(=O)c1cc(-c2ccccc2C(F)(F)F)n(C2CCCC2)n1)Nc1ncco1` [compound 427, (3S)-3-({1-cyclopentyl-5-[2-(trifluoromethyl)phenyl]-1H-pyrazol-3-yl}formamido)-5-(3,3-difluoropiperidin-1-yl)-N-(1,3-oxazol-2-yl)pentanamide] it was 8.5 nM.
Take `CC(F)(F)c1ccccc1-c1cc(C(=O)N[C@@H](CCN2CCCC(F)(F)C2)CC(=O)Nc2nccs2)nn1C1CCCC1` [compound 428, (3S)-3-({1-cyclopentyl-5-[2-(1,1-difluoroethyl)phenyl]-1H-pyrazol-3-yl}formamido)-5-(3,3-difluoropiperidin-1-yl)-N-(1,3-thiazol-2-yl)pentanamide]: the EC50 came to 7.5 nM.
With `O=C(C[C@H](CCN1CCCC(F)(F)C1)NC(=O)c1cc(-c2ccccc2Cl)n(C2CCCC2)n1)Nc1nccs1` [compound 429, (3S)-3-{[5-(2-chlorophenyl)-1-cyclopentyl-1H-pyrazol-3-yl]formamido}-5-(3,3-difluoropiperidin-1-yl)-N-(1,3-thiazol-2-yl)pentanamide] the figure was 6.1 nM; with `O=C(C[C@H](CCN1CCC(F)(F)CC1)NC(=O)c1cc(-c2ccccc2C(F)(F)F)n(C2CCCC2)n1)Nc1nccs1` [compound 430, (3S)-3-({1-cyclopentyl-5-[2-(trifluoromethyl)phenyl]-1H-pyrazol-3-yl}formamido)-5-(4,4-difluoropiperidin-1-yl)-N-(1,3-thiazol-2-yl)pentanamide], 17.5 nM; with `CN(C(=O)C[C@H](CCN1CCCC(F)(F)C1)NC(=O)c1cc(-c2ccccc2C(F)(F)F)n(C2CCCC2)n1)c1nccs1` [compound 431, (3S)-3-({1-cyclopentyl-5-[2-(trifluoromethyl)phenyl]-1H-pyrazol-3-yl}formamido)-5-(3,3-difluoropiperidin-1-yl)-N-methyl-N-(1,3-thiazol-2-yl)pentanamide], 22.5 nM.
As to `CC(F)(F)c1ccccc1-c1cc(C(=O)N[C@@H](CCN2CCCC(F)(F)C2)CC(=O)O)nn1C1CCCC1` [compound 432, (3S)-3-({1-cyclopentyl-5-[2-(1,1-difluoroethyl)phenyl]-1H-pyrazol-3-yl}formamido)-5-(3,3-difluoropiperidin-1-yl)pentanoic acid], the EC50 stood at 16 nM.
Turning to `O=C(O)C[C@H](CCN1CCCC(F)(F)C1)NC(=O)c1cc(-c2ccccc2Cl)n(C2CCCC2)n1` [compound 433, (3S)-3-{[5-(2-chlorophenyl)-1-cyclopentyl-1H-pyrazol-3-yl]formamido}-5-(3,3-difluoropiperidin-1-yl)pentanoic acid], the EC50 was determined as 151 nM.
Consider `O=C(C[C@H](CCN1CCCCC1)NC(=O)c1cc(-c2ccsc2C(F)(F)F)n(C2CCCC2)n1)NC1CCC1` [compound 434], for which the EC50 is 641 nM.

The values above are taken from patent US11535630B2, “Apelin receptor (APJ) agonists and uses thereof” (Research Triangle Institute, priority 2015, dated 2022).
